{"source": "patent US7070965B1", "about": "“Small molecule anticancer compounds and related production process” (priority 1998, dated 2006)", "key": {"normal human PBLs": {"test_system": "normal human PBLs", "test": "Flow cytometry annexin V / PI apoptosis detection", "assay_type": "cell-based", "conditions": "60 μg/ml, 24 hours", "procedure": "(§1) Human cancer cell lines DU-145 (prostate cancer), K562 (leukemia), HCT116 (colon cancer), H1688 (lung cancer), SUN423 (hepatocarcinoma), MCF7 (breast cancer), CRL-1687 (pancreatic cancer), and SUN-1 (gastric cancer) were obtained from American Type Culture Collection (ATCC). 30 ml blood was collected from a health person and normal peripheral mononuclear cells were separated by Ficoll separation solution (Sigma). All cells were maintained in RPMI 1640, DMEM, or McCoy medium supplemented with 10% FCS, […] streptomycin and 100 u/ml penicillin. Normal human peripheral mononuclear cells, K562 and SUN-1 were suspended cells. After spinning at 1,500 RPM for 5 min, supernatants were discharged and cells were resuspended and expended in fresh medium. The other tumor cell lines were adherent cells and were dispersed with 0.05% trypsin/0.01% EDTA (Irvine Scientific, CA) for expansion. Cells were seeded in T75 flasks at 2×10^6 cells/flask in culture medium supplemented with 10% fetal bovine serum and incubated overnight at 37° C. with 5% CO2. The adherent cells attached to the plate were striped with disposable cell scrapers (Fisher Scientific) after treated either with 1% iso-C15, anteiso-C15 or control solution for 1, 2, 4, 8 and 24 hours and then combined with respective float cells. Cells were then prepared for flow cytometry analysis, in situ cell death detection, DNA fragmentation and Western blot assay followed the preparation methods for each assay. Cell pellets treated for 2 and 4 hr with either iso-C15 or control were also stored at −70° C. for future studies of gene regulation.\n(§2) A flow cytometer (FACScan) with Consort 30 software for gating analysis (Becton Dickinson, San Jose, Calif.) was used. The Apoptosis Detection kit (R&D Systems) was used to quantitatively determine the percentage of cells undergoing apoptosis by virtue of their ability to bind annexin V and exclude propidium iodide (PI). Cells were washed in cold PBS twice and resuspended in binding buffer. Fluorescent-labeled annexin V and PI were added to the cells. The cells undergoing apoptosis, expressing phosphotidyiserine on the outer leaflet of cell membranes, would bind annexin V. The cells in later stage of apoptosis or necrosis, with a compromised cell membrane, would allow PI to bind to the cellular DNA. The resulting cells were immediately analyzed by flow cytometer equipped with a single laser emitting excitation light at 488 nm. The annexin V and PI generated signals can be detected in signal detector FL1 and FL2, respectively. […]"}, "[1]": {"test_system": "K562 human leukemia cells", "test": "Flow cytometry annexin V / PI apoptosis detection", "assay_type": "cell-based", "conditions": "30 μg/ml, 24 hours", "procedure": "as §1, §2"}, "[2]": {"test_system": "Human leukemia cell line K562", "test": "MTT assay, inhibition of cell growth", "assay_type": "cell-based", "conditions": "for Inhibitory rate (%) on cell growth: 24 hours, dissolved with 10% ethanol, listed as extracted iso-C15", "procedure": "(§3) MTT assay was performed to test the cytotoxicity. The K562 and SGC7901 cells were maintained in exponential growth in RPMI 1640 medium supplemented with 15% heat-inactivated newborn calf serum. The cells were plated at a density of 2×10^4 cells/100 μl medium/well into 96-well plate with medium containing samples in five final concentrations (7.5, 15, 30, 60 and 90 μg/ml) for iso-C15 (either synthesized or extracted) and one final concentration (30 μg/ml) for the others. The media in control wells contained no samples. The cells were incubated at 37° C. in a highly humidified incubator under 5% CO2 atmosphere for 24 hours. The supernatant was removed by fast inversion of the plate. 20 μl of 5 mg/ml MTT solution were added into each well. Incubation was continued for 4 hours. DMSO 100 μl/well was added and the plate was vibrated for 10 minutes. A570nm was read at the Immunoreader BioTek EL311S.\n(§4) The inhibition rate (%)=1−(mean A570nm in test wells/mean A570nm in control wells)"}, "[3]": {"test_system": "human gastric cancer cell line SGC7901", "test": "MTT assay, inhibition of cell growth", "assay_type": "cell-based", "conditions": "dissolved with 10% ethanol; for Inhibitory rate (%) on cell growth: 24 hours, listed as extracted iso-C15", "procedure": "as §3, §4"}, "[4]": {"test_system": "UVB radiation-induced skin tumor", "test": "Chemoprevention of UVB-induced skin cancer", "assay_type": "in vivo, SKH-1 hairless mice", "conditions": "topical 200 μl of 10% iso-C15, 30 weeks, vs vehicle-treated group", "procedure": "13-methyltetradecanoic acid (iso-C15) was prepared by dissolving in NaOH solution and then in 0.8% Tween 80 with pH 7.5, with resulting concentration 10%.\nForty female SKH-1 hairless mice were divided into control and test groups, with 20 in each. The mice in both groups were treated topically once with 5.12 μg of DMBA dissolved in 200 μl acetone per mouse to achieve tumor initiation. One week later (day 8), animals in the test group were applied topically with 200 μl iso-C15 per application per mouse per day. The control group received 200 μl Tween 80 per application per mouse per day. Thirty minutes later, the animals in both groups were exposed to UVB (290–320 nm) radiation at a dose of 180 mJ/cm^2 per day to achieve UVB radiation-induced tumor promotion. The iso-C15 or vehicle treatments followed by UVB irradiation were performed twice a week up to 30 weeks from the start of UVB exposure. The animals were evaluated for tumor incidence at the end of 30 weeks."}, "SNU-1 cells": {"test_system": "SNU-1 cells", "test": "In situ cell death detection (TUNEL, fluorescence microscopy)", "assay_type": "cell-based, human", "conditions": "60 μg/ml, 8 hours", "text": "In Situ Cell Death Detection Kit, POD (Mannheim Boehringer GmbH) was used to detect the individual apoptotic cells. Cleavage of genomic DNA during apoptosis may yield double-stranded, low molecular weight DNA fragments as well as single strand breaks in high molecular weight DNA. Those DNA strand breaks can be identified by labeling free 3′-OH termini with modified nucleotides in an enzymatic reaction. In this kit terminal deoxynucleotidyl transferase (TdT) is used to label free 3′-OH ends in genomic DNA with fluorescein-dUTP. The incorporated fluorescein is visualized under fluorescence microscope directly. The incorporated fluorescein can also bind to anti-fluorescein antibody POD and be detected by substrate reaction. Stained cells can be analyzed under light microscope.\nFour human tumor cell lines, K-562 human leukemia, SNU-1 human gastric carcinoma cell lines, MCF-7 human breast adenocarcinoma and H1688 human small cell lung carcinoma cell lines, as well as Human PBLs were treated with iso-C15 (60 μg/ml).\nSNU-1 cells treated with iso-C15 for 8 hours were added with TUNEL-reaction mixture and incubated 60 min at 37° C. After washing with PBS for three times, cell morphology was analyzed directly under fluorescence microscopy."}}, "data": [{"smiles": "CC(C)CCCCCCCCCCCC(=O)O", "note": "[iso-C15, 13-methyltetradecanoic acid]", "values": [{"measurement": "FL1/FL2 pattern (annexin V / PI), effect on normal lymphocytes", "setting": "normal human PBLs", "value": "no significant effects"}, {"measurement": "FL1/FL2 pattern (annexin V / PI), apoptosis", "setting": "[1]", "value": "the majority of the cells were undergoing apoptosis"}, {"measurement": "Inhibitory rate (%) on cell growth", "setting": "[2]; 7.5 μg/ml", "value": 27.1, "unit": "%"}, {"measurement": "Inhibitory rate (%) on cell growth", "setting": "[2]; 15 μg/ml", "value": 51.2, "unit": "%"}, {"measurement": "Inhibitory rate (%) on cell growth", "setting": "[2]; 30 μg/ml", "value": 72.2, "unit": "%"}, {"measurement": "Inhibitory rate (%) on cell growth", "setting": "[2]; 60 μg/ml", "value": 83.7, "unit": "%"}, {"measurement": "Inhibitory rate (%) on cell growth", "setting": "[2]; 90 μg/ml", "value": 87.2, "unit": "%"}, {"measurement": "inhibition at 7.5 µg/mL", "setting": "[2]; Homo sapiens, K562, 24 h, read-out: Inhibitory rate (%) on cell growth, 7.5 μg/ml, dissolved with 10% ethanol", "value": 26.2, "unit": "%"}, {"measurement": "inhibition at 15 µg/mL", "setting": "[2]; Homo sapiens, K562, 24 h, read-out: Inhibitory rate (%) on cell growth, 15 μg/ml, dissolved with 10% ethanol", "value": 50.1, "unit": "%"}, {"measurement": "inhibition at 30 µg/mL", "setting": "[2]; Homo sapiens, K562, 24 h, read-out: Inhibitory rate (%) on cell growth, 30 μg/ml, dissolved with 10% ethanol", "value": 71.6, "unit": "%"}, {"measurement": "inhibition at 60 µg/mL", "setting": "[2]; Homo sapiens, K562, 24 h, read-out: Inhibitory rate (%) on cell growth, 60 μg/ml, dissolved with 10% ethanol", "value": 83.1, "unit": "%"}, {"measurement": "inhibition at 90 µg/mL", "setting": "[2]; Homo sapiens, K562, 24 h, read-out: Inhibitory rate (%) on cell growth, 90 μg/ml, dissolved with 10% ethanol", "value": 85.3, "unit": "%"}, {"measurement": "Inhibitory rate (%) on cell growth", "setting": "[3]; 15 μg/ml", "value": 28.1, "unit": "%"}, {"measurement": "Inhibitory rate (%) on cell growth", "setting": "[3]; 30 μg/ml", "value": 51.2, "unit": "%"}, {"measurement": "Inhibitory rate (%) on cell growth", "setting": "[3]; 60 μg/ml", "value": 62.1, "unit": "%"}, {"measurement": "Inhibitory rate (%) on cell growth", "setting": "[3]; 90 μg/ml", "value": 68.8, "unit": "%"}, {"measurement": "inhibition at 15 µg/mL", "setting": "[3]; Homo sapiens, SGC-7901, 24 h, 15 μg/ml, read-out: Inhibitory rate (%) on cell growth", "value": 27.5, "unit": "%"}, {"measurement": "inhibition at 30 µg/mL", "setting": "[3]; Homo sapiens, SGC-7901, 24 h, 30 μg/ml, read-out: Inhibitory rate (%) on cell growth", "value": 50.5, "unit": "%"}, {"measurement": "inhibition at 60 µg/mL", "setting": "[3]; Homo sapiens, SGC-7901, 24 h, 60 μg/ml, read-out: Inhibitory rate (%) on cell growth", "value": 63.1, "unit": "%"}, {"measurement": "inhibition at 90 µg/mL", "setting": "[3]; Homo sapiens, SGC-7901, 24 h, 90 μg/ml, read-out: Inhibitory rate (%) on cell growth", "value": 68.4, "unit": "%"}, {"measurement": "reduction in tumor incidence", "setting": "[4]", "value": 40, "unit": "%"}, {"measurement": "reduction of tumor volume", "setting": "[4]", "value": 90, "unit": "%"}, {"measurement": "apoptotic cells, TUNEL fluorescence", "setting": "SNU-1 cells", "value": "Several yellow fluorescent spots of apoptotic cells were noted"}]}]}
